Reference: US11564920B2, “5-heteroaryl-1H-pyrazol-3-amine derivative” (Sumitomo Pharma Co., Ltd., priority 2020, dated 2023)

Tests used:
ES-2 cells = test: Cell growth suppression experiment; type: cell-based; conditions: for IC50: Homo sapiens, 48 h, cultured for 2 days, read-out: IC50 (cell growth suppression, ranking); for cell growth suppression effect (in words): compared with prexasertib
Description: ES-2 cells were obtained from the American Type Culture Collection (ATCC). These cells were cultured at 37° C. in the presence of 5% CO2 in a 10% fetal bovine serum, […] penicillin/streptomycin containing McCoy's 5a medium.
500 cells were seeded for each well in a 384-well plate, and the evaluated compound was added so that the final concentration of DMSO would be 0.1% to culture the cells for 2 days. After completion of the culture, the cell viability rate was calculated using CellTiter-Glo® 3D Reagent (Promega, G968B).

hERG current = hERG current (Homo sapiens (Human), UniProt Q12809); test: hERG current blocking test; conditions: for hERG/CHK1: IC50 of hERG divided by IC50 of CHK1 inhibition of Test Example 1; for IC50: read-out: hERG inhibition IC50, hERG stably expressing CHO cells, Qube384
Description: The test compounds were added to cultured hERG (human Ether-a-go-go Related Gene) gene stably expressing CHO cell line cells to achieve 0.27 to 100 μM.

CHK1 = CHK1 (Homo sapiens (Human), UniProt O14757); test: CHK1 inhibitory activity test (IMAP TR-FRET); type: biochemical; conditions: for effect of suppressing CHK1 activity (in words): compared with prexasertib; for inhibition at 0.0001 µM: read-out: CHK1 inhibition % at 0.1 nM
Description: IMAP TR-FRET Screening Express Kit (R8160) was obtained from Molecular Devices. […] FAM-PKAtide (R7255, Molecular Devices) and FAM-Phospho-PKAtide (R7304, Molecular Devices) were admixed after dilution, and calibration standard systems for phosphorylation levels from 0 to 100% were created. 5 μL of a compound dissolved in a 0.4% DMSO solution was added to a 384 well plate. A compound study group to which 5 μL of each of CHK1, CHK1tide, and ATP was added, and a standard group to which 20 μL of standard was added were created, and subjected to a kinase reaction for 3 hours at 30° C. Subsequently, 60 μL of Binding Reagent (80% Buffer A, 20% Buffer B, 1:600 Binding Reagent, 1:400 Tb-Donor) was added for a binding reaction for 2 hours at room temperature.

CYP3A4 = CYP3A4 (Homo sapiens (Human), UniProt P08684); test: CYP3A4 MBI and enzyme inactivation clearance evaluation; type: in vitro ADME; conditions: human liver microsome; for microsomal CLint: liver microsomes, probe midazolam or testosterone
Description: The effect and mode of inhibition of the test compound on CYP3A4 were evaluated using a human liver microsome as an enzyme source and midazolam or testosterone as a substrate. […] The IC50 value was calculated from a concentration plot.

Sequence of CHK1 (O14757 whole entry): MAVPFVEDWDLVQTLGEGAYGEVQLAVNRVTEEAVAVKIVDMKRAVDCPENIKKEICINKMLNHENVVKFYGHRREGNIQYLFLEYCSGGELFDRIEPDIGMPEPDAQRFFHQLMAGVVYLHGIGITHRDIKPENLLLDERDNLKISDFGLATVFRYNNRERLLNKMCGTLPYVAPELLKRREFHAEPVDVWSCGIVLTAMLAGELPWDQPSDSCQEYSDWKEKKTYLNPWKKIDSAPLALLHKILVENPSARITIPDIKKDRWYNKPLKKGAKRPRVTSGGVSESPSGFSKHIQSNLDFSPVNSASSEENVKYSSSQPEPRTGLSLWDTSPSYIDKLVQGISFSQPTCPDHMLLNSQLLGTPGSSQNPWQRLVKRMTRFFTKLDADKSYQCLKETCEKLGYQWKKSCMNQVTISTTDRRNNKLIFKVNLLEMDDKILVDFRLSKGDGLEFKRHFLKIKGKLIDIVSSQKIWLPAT
Sequence of hERG current (Q12809 whole entry): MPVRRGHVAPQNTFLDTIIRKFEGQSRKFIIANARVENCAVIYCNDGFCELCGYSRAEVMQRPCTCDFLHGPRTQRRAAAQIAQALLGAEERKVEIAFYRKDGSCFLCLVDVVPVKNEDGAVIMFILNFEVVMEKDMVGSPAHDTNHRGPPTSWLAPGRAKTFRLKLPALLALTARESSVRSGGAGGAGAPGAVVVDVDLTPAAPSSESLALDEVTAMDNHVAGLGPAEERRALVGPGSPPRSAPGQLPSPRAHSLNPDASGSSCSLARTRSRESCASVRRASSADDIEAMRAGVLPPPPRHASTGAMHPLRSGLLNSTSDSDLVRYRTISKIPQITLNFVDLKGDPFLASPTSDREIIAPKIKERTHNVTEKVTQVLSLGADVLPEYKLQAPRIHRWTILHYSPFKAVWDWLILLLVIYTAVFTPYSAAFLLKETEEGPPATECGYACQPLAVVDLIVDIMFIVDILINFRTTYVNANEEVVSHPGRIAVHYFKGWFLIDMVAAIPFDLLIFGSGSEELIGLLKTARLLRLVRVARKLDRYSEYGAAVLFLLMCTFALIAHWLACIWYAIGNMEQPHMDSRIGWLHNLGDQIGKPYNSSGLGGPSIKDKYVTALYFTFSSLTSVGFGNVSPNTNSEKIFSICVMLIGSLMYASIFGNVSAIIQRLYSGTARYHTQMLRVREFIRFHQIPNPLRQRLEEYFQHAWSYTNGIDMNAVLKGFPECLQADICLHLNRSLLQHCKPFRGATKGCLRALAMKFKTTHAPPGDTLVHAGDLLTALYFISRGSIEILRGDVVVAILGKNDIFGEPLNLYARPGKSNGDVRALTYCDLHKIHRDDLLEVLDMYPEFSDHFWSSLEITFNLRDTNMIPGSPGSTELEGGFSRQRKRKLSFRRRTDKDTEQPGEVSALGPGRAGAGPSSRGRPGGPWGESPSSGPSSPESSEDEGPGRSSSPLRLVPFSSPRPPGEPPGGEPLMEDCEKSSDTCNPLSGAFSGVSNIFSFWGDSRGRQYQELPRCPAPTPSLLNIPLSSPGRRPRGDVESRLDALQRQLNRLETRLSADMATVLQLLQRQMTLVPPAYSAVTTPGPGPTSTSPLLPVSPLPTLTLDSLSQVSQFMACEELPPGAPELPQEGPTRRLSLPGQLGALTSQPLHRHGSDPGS
Sequence of CYP3A4 (P08684 whole entry): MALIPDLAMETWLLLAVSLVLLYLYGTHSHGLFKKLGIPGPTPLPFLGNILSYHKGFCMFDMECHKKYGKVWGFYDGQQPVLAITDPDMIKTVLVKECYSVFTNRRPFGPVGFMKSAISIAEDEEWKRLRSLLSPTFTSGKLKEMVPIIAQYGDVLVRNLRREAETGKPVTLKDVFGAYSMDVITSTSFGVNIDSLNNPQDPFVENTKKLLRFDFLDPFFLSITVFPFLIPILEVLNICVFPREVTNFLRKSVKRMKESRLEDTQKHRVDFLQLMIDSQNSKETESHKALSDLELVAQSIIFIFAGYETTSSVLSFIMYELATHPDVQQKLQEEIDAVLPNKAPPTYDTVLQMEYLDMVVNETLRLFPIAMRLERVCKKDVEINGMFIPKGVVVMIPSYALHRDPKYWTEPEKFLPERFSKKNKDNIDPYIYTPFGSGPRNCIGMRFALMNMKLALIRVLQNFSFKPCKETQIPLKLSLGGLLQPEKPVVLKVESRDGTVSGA

SMILES | IC50 (ES-2 cells) [nM] | hERG/CHK1 (hERG current) | effect of suppressing CHK1 activity (in words) (CHK1) | inhibition at 0.0001 µM (CHK1) [%] | microsomal CLint (CYP3A4) [µL/min/mg] | IC50 (hERG current) [nM] | cell growth suppression effect (in words) (ES-2 cells) | Factor of change in IC50 value (CYP3A4; by pre-incubation with NADPH, MBI action when 2-fold or greater)
COc1cncc(OC[C@@H]2CNCCO2)c1-c1cc(Nc2cnc(C#N)cn2)n[nH]1 (stereo in doubt) [Example 12, 5-[(5-{3-methoxy-5-[(morpholin-2-yl)methoxy]pyridin-4-yl}-1H-pyrazol-3-yl)amino]pyrazine-2-carbonitrile] | 100 to 300 | 9118 | more potent effect of suppressing CHK1 activity than prexasertib | 21 | 0.287 |  |  | 
COc1cncc(OC[C@H]2CNCCO2)c1-c1cc(Nc2cnc(C#N)cn2)n[nH]1 (stereo in doubt) [Example 13, 5-[(5-{3-methoxy-5-[(morpholin-2-yl)methoxy]pyridin-4-yl}-1H-pyrazol-3-yl)amino]pyrazine-2-carbonitrile] | 300 to 1000 | <3649 |  | 6 | 0.484 | < 2700 |  | 
COc1ccnc(OCCCN)c1-c1cc(Nc2cnc(C(F)(F)F)cn2)n[nH]1 [Example 16, N-{5-[2-(3-aminopropoxy)-4-methoxypyridin-3-yl]-1H-pyrazol-3-yl}-5-(trifluoromethyl)pyrazin-2-amine] | 300 to 1000 | <888 |  | < 5 |  | < 2700 |  | 
COc1cncc(OC[C@]2(F)CCNC2)c1-c1cc(Nc2cnc(C#N)cn2)n[nH]1 [Example 20, (S)-5-[(5-{3-[(3-fluoropyrrolidin-3-yl)methoxy]-5-methoxypyridin-4-yl}-1H-pyrazol-3-yl)amino]pyrazine-2-carbonitrile] | < 30 | 11176 | more potent effect of suppressing CHK1 activity than prexasertib | 6 | 1.11 |  | excellent cell growth suppression effect that is equivalent to that of prexasertib | 
COc1cncc(OC[C@@]2(F)CCNC2)c1-c1cc(Nc2cnc(C#N)cn2)n[nH]1 [Example 22, (R)-5-[(5-{3-[(3-fluoropyrrolidin-3-yl)methoxy]-5-methoxypyridin-4-yl}-1H-pyrazol-3-yl)amino]pyrazine-2-carbonitrile] | < 30 | 12500 | more potent effect of suppressing CHK1 activity than prexasertib | 22 | 0.349 |  | excellent cell growth suppression effect that is equivalent to that of prexasertib | 
COc1cncc(OCC2(C)CNC2)c1-c1cc(Nc2cnc(C#N)cn2)n[nH]1 [Example 25, 5-[(5-{3-methoxy-5-[(3-methylazetidin-3-yl)methoxy]pyridin-4-yl}-1H-pyrazol-3-yl)amino]pyrazine-2-carbonitrile] | < 30 |  |  | < 5 |  |  | excellent cell growth suppression effect that is equivalent to that of prexasertib | 
COc1cncc(OCC2(C(F)F)CNC2)c1-c1cc(Nc2cnc(C#N)cn2)n[nH]1 [Example 26, 5-{[5-(3-{[3-(difluoromethyl)azetidin-3-yl]methoxy}-5-methoxypyridin-4-yl)-1H-pyrazol-3-yl]amino}pyrazine-2-carbo nitrile] | < 30 |  | more potent effect of suppressing CHK1 activity than prexasertib | 42 |  |  | excellent cell growth suppression effect that is equivalent to that of prexasertib | 
COc1cncc(OC[C@@H](C)CN)c1-c1cc(Nc2cnc(C#N)cn2)n[nH]1 [Example 27] | < 30 |  |  | < 5 |  |  |  | 
COc1cncc(OC[C@H](C)CN)c1-c1cc(Nc2cnc(C#N)cn2)n[nH]1 [Example 28] | < 30 |  |  | < 5 |  |  |  | 
COc1cncc(OC[C@@H](F)CN)c1-c1cc(Nc2cnc(C#N)cn2)n[nH]1 [Example 29, 5-[(5-{3-[(2S)-3-amino-2-fluoropropoxy]-5-methoxypyridin-4-yl}-1H-pyrazol-3-yl)amino]pyrazine-2-carbonitrile] | < 30 | 18667 |  |  | 0.054 |  | excellent cell growth suppression effect that is equivalent to that of prexasertib | Not Detected
CNCCCOc1cncc(OC)c1-c1cc(Nc2cnc(C#N)cn2)n[nH]1 [Example 31, 5-[(5-{3-methoxy-5-[3-(methylamino)propoxy]pyridin-4-yl}-1H-pyrazol-3-yl)amino]pyrazine-2-carbonitrile] | < 30 |  |  | < 5 |  |  | excellent cell growth suppression effect that is equivalent to that of prexasertib | 
COc1cncc(O[C@H](C)C2CNC2)c1-c1cc(Nc2cnc(C#N)cn2)n[nH]1 [Example 33, 5-[(5-{3-[(1R)-1-(azetidin-3-yl)ethoxy]-5-methoxypyridin-4-yl}-1H-pyrazol-3-yl)amino]pyrazine-2-carbonitrile] | < 30 |  |  | < 5 |  |  | excellent cell growth suppression effect that is equivalent to that of prexasertib | 
COc1cncc(O[C@H](C)C2(O)CNC2)c1-c1cc(Nc2cnc(C#N)cn2)n[nH]1 [Example 34, 5-[(5-{3-[(1R)-1-(3-hydroxyazetidin-3-yl)ethoxy]-5-methoxypyridin-4-yl}-1H-pyrazol-3-yl)amino]pyrazine-2-carbonitrile] | > 1000 |  |  | < 5 |  |  |  | 
CN[C@@H]1CC[C@@H](Oc2cncc(OC)c2-c2cc(Nc3cnc(C#N)cn3)n[nH]2)C1 [Example 35, 5-{[5-(3-methoxy-5-{[(1R,3R)-3-(methylamino)cyclopentyl]oxy}pyridin-4-yl)-1H-pyrazol-3-yl]amino}pyrazine-2-carbonitrile] | < 30 |  |  | < 5 |  |  | excellent cell growth suppression effect that is equivalent to that of prexasertib | 
COc1cncc(O[C@H]2C[C@H](N)[C@H]3C[C@H]32)c1-c1cc(Nc2cnc(C#N)cn2)n[nH]1 [Example 36, 5-{[5-(3-{[(1R,2S,4S,5S)-4-aminobicyclo[3.1.0]hexan-2-yl]oxy}-5-methoxypyridin-4-yl)-1H-pyrazol-3-yl]amino}pyrazine-2-carbonitrile] | < 30 |  |  | < 5 |  |  | excellent cell growth suppression effect that is equivalent to that of prexasertib | 
COc1nccc(OCC2(CN)CC2)c1-c1cc(Nc2cnc(C#N)cn2)n[nH]1 [Example 38, 5-{[5-(4-{[1-(aminomethyl)cyclopropyl]methoxy}-2-methoxypyridin-3-yl)-1H-pyrazol-3-yl]amino}pyrazine-2-carbonitrile] | < 30 |  |  | < 5 |  |  | excellent cell growth suppression effect that is equivalent to that of prexasertib | 
